Assay results taken from PubChem BioAssay (NCI).
Converted amounts (≈) assume the structure as drawn. “And” between values parts separate entries of the source, which are not always exact repeats. Equal entries are not always repeated.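 48-hour exposure; five concentrations; linearly interpolated endpoints. GI50 = concentration required for 50% inhibition of growth. The concentration for full growth arrest is given as TGI.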

Columns and labels:
Assay in all cases: NCI tumour cell line growth inhibition, 48 h
[1] = test system: OVCAR-5 ovarian
[2] = test system: NCI-H460 lung
[3] = test system: SK-MEL-28 melanoma
[4] = test system: M14 melanoma
[5] = test system: UO-31 renal
[6] = test system: HCC-2998 colon
[7] = test system: NCI-H226 lung
[8] = test system: MCF7 breast
[9] = test system: NCI/ADR-RES ovarian
[10] = test system: SK-MEL-2 melanoma

Compound | TGI [1] | TGI [2] | TGI [3] | TGI [4] | TGI [5] | TGI [6] | TGI [7] | GI50 [1] | GI50 [8] | TGI [8] | GI50 [2] | GI50 [3] | GI50 [4] | GI50 [5] | GI50 [9] | TGI [9] | TGI [10] | GI50 [6] | GI50 [10] | GI50 [7]
Nc1ccc2c(c1)C(=O)N(O)C2=O | > 100 µM | > 100 µM | > 100 µM | > 100 µM | > 100 µM | > 100 µM | > 100 µM | – | – | – | – | – | – | – | – | – | – | – | – | –
CC1(C)CC(=O)C2=C(C1)NC(SSC1=C(C#N)C(c3ccc(F)cc3)C3=C(CC(C)(C)CC3=O)N1)=C(C#N)C2c1ccc(F)cc1 (stereo not drawn) | > 150 µg/mL | > 150 µg/mL | 46.4 µg/mL | 49.5 µg/mL | 74.9 µg/mL | – | – | 106 µg/mL (≈ 162 µM) | 32.3 µg/mL (≈ 49.3 µM) | 72.3 µg/mL | 47.8 µg/mL (≈ 73 µM) | 25.8 µg/mL | 22.6 µg/mL (≈ 34.5 µM) | 32 µg/mL (≈ 48.9 µM) | 40.9 µg/mL (≈ 62.5 µM) | 128 µg/mL | – | – | – | –
O=C(O)C(CSC(c1ccccc1)(c1ccccc1)c1ccccc1)N=Cc1cccs1 (stereo not drawn) | > 100 µM | > 48.9 µM | > 100 µM | 5.11 µM | > 100 µM | 27.7 µM | > 96.7 µM | – | – | > 56 µM | – | – | – | – | – | 63.8 µM | 27.4 µM | – | – | –
O=C(CCN1CC2CCC(CC2)C1)c1cccs1 | 33.1 µM | 37.5 µM | 32.5 µM | 31.8 µM | 23.9 µM | 29 µM | > 100 µM | – | – | 29.4 µM | – | – | – | – | – | 62.1 µM | 33.6 µM | – | – | –
CCOC(=O)/C(=C\NCC(OCC)OCC)c1nc2ccccc2[nH]1 | > 100 µM | 71.5 µM | 77 µM | > 100 µM | > 100 µM | 51.3 µM | > 100 µM | – | – | > 100 µM | – | – | – | – | – | 24.4 µM | 44.7 µM | – | – | –
CCOC(=O)C1CCn2c(nc3c2c(=O)n(C)c(=O)n3C)S1 (stereo not drawn) | > 100 µM | > 100 µM | – | > 100 µM | – | – | > 100 µM | – | – | – | – | – | – | – | – | – | > 100 µM | – | – | –
O=CN1CCN(C(=O)c2cc(Cl)cc(Cl)c2)C1=S | 44.2 µM | 51.2 µM | 39.2 µM | 29.2 µM | – | 31.9 µM | 32.7 µM | – | – | 20.8 µM | – | – | – | – | – | 80.7 µM | 33 µM | – | – | –
CC1=C2C(=O)OCC23C=COC3(C)O1 (stereo not drawn) | > 100 µM | > 100 µM | 46.3 µM | 85.5 µM | > 100 µM | > 100 µM | 97.8 µM | – | – | > 100 µM | – | – | – | – | – | > 100 µM | > 100 µM | – | – | –
O=[N+]([O-])c1ccc2c(c1)c(N=NC(=S)NC1CCCCC1)c(O)n2CN1CCOCC1 | 23.8 µM | 13.5 µM | 25.6 µM | 21.8 µM | 18.4 µM | 17.6 µM | 66 µM | – | – | 17.4 µM | – | – | – | – | – | 18.7 µM | 25.9 µM | – | – | –
CS(=O)(=O)c1nc(-c2cc3c(c(S(C)(=O)=O)n2)CCCC3)cc2c1CCCC2 | > 100 µM | – | > 100 µM | > 100 µM | 0.111 µM | > 100 µM | > 100 µM | – | – | > 100 µM | – | – | – | – | – | > 100 µM | > 100 µM | – | – | –
C/C(=N\NC(=O)c1cccnc1)c1cccc(/C(C)=N/NC(=O)c2cccnc2)n1 | 8.28 µM | 34.6 µM | > 100 µM | 13.6 µM | 80.7 µM | > 100 µM | – | – | – | – | – | 9.56 µM | – | – | – | – | 7.02 µM | 2.17 µM | 2.33 µM | –
C=C1C[C@@H](O)[C@@H](Br)C(C)(C)[C@]12CCC(C)(Cl)C(Br)C2 (stereo partly drawn) | 19.8 µM | > 84.5 µM | > 100 µM | > 100 µM | > 100 µM | 35.3 µM | > 84.8 µM | – | – | > 79.3 µM | – | – | – | – | – | 98 µM | 32.3 µM | – | – | –
Nc1ccccc1N/C(=C\C(=O)C(Cl)(Cl)Cl)c1ccccc1 | 41.5 µM | 69.4 µM | > 100 µM | 42.2 µM | 39 µM | 34.9 µM | > 100 µM | – | – | 83.4 µM | – | – | – | – | – | > 100 µM | 28.6 µM | – | – | –
COc1ccc(N=C2C(=O)C3=C(OC(C)(C)CC3)c3ccccc32)cc1 | 6.14 µM | 5.72 µM | 2.48 µM | 1.5 µM | 1.69 µM | 3.96 µM | 20.4 µM | – | – | 1.87 µM | – | – | – | – | – | 16.7 µM | 2.46 µM | – | – | –
Clc1ccc(Nc2nc(Cl)c3[nH]cnc3n2)cc1Cl | > 100 µM | 62.7 µM | – | > 100 µM | 66.6 µM | 31.1 µM | > 100 µM | – | – | > 100 µM | – | – | – | – | – | > 100 µM | 59.5 µM | – | – | –
[O-][N+](CCO)(CCO)c1ncnc2nc[nH]c12 | > 100 µM | – | > 100 µM | > 100 µM | > 100 µM | > 100 µM | > 100 µM | – | – | > 100 µM | – | – | – | – | – | > 100 µM | > 100 µM | – | – | –
CC[C@@]1(O)C(=O)OCc2c1cc1n(c2=O)Cc2c-1nc1ccc(O)cc1c2CC[Si](C)(C)C | 0.267 µM and 0.375 µM | 0.00445 µM and 0.0117 µM | > 100 µM | 0.0151 µM | 0.123 µM and 0.0795 µM | 0.0641 µM and 0.0601 µM | – | – | – | – | – | 0.107 µM | – | – | – | 1.84 µM and 1.56 µM | 0.576 µM and 1.17 µM | – | 0.0742 µM | < 0.001 µM
O=S1(=O)OC(c2ccc(O)cc2)(c2ccc(O)cc2)c2ccccc21 | > 100 µM | > 100 µM | > 100 µM | > 100 µM | > 100 µM | > 100 µM | > 100 µM | – | – | > 100 µM | – | – | – | – | – | > 100 µM | > 100 µM | – | – | –
